Earlier results in patent publication US20250331550A1, “AEROSOL-GENERATING ARTICLE EMBEDDED AVERSIVE AGENT” (PHILIP MORRIS PRODUCTS S.A., priority 2022, published 2025).
Counter-ions that a name gives are not always drawn.

System: test panel
Details: reciprocal of the dilution that still has a bitter taste; quinine hydrochloride set at 200,000

Row | Compound | Bitterness value
1 | CC1=C[C@H]2[C@H]3[C@H](C(C)=C4[C@H]5OC(=O)[C@@H](C)[C@@H]5CC[C@](C)(O)[C@@H]43)[C@@]13[C@@H]2[C@@](C)(O)CC[C@H]1[C@H](C)C(=O)O[C@@H]13 [Absinthin, absinthin] | 3,000,000
2 | C[C@@]12C[C@@H](c3ccoc3)OC(=O)[C@@H]1CC[C@]1(C)[C@H]2[C@@H]2C=C[C@@]1(O)C(=O)O2 [Columbin, columbin] | 60,000,000
3 | COC1=C[C@@H](C)[C@@H]2C[C@H]3OC(=O)C[C@H]4C(C)=C(OC)C(=O)[C@H]([C@@]2(C)C1=O)[C@@]34C [Quassin, quassin] | 13,000,000
4 | C=C[C@H]1C[N@@]2CC[C@H]1C[C@H]2[C@H](O)c1ccnc2ccc(OC)cc12 [Quinine hydrochloride, quinine hydrochloride] | 200,000
5 | amarogentin | 58,000,000
